Assay results as given in US20130035329A1, “THERAPEUTICALLY ACTIVE COMPOSITIONS AND THEIR METHODS OF USE” (priority 2009, published 2013).

Molecular target: IDH1 R132H (Homo sapiens, UniProt O75874, R132H)
Experiment: High Throughput Screening (HTS) for IDH1 R132H inhibitors (resazurin/NADPH fluorescence assay)
Type: biochemical
Details: IDH1m; assay similar to Example 1; class symbols
Description: A compound described herein may be an inhibitor of IDH1m. […] B refers to an inhibitor of IDH1m with an IC50 between 1 μM and 50 μM. C refers to an inhibitor of IDH1m with an IC50 greater than 50 μM. D refers to a compound wherein an IC50 is not available.
Assays were conducted in a volume of 76 μl assay buffer (150 mM NaCl, 10 mM MgCl2, 20 mM Tris pH 7.5, 0.03% bovine serum albumin) as follows in a standard 384-well plate: To 25 ul of substrate mix (8 uM NADPH, 2 mM aKG), 1 μl of test compound was added in DMSO. The plate was centrifuged briefly, and then 25 μl of enzyme mix was added (0.2 μg/ml ICDH1 R132H) followed by a brief centrifugation and shake at 100 RPM. The reaction was incubated for 50 minutes at room temperature, then 25 μl of detection mix (30 μM resazurin, […]) was added and the mixture further incubated for 5 minutes at room temperature. The conversion of resazurin to resorufine was detected by fluorescent spectroscopy at Ex544 Em590 c/o 590.

Sequence of IDH1 R132H (O75874 whole entry R132H): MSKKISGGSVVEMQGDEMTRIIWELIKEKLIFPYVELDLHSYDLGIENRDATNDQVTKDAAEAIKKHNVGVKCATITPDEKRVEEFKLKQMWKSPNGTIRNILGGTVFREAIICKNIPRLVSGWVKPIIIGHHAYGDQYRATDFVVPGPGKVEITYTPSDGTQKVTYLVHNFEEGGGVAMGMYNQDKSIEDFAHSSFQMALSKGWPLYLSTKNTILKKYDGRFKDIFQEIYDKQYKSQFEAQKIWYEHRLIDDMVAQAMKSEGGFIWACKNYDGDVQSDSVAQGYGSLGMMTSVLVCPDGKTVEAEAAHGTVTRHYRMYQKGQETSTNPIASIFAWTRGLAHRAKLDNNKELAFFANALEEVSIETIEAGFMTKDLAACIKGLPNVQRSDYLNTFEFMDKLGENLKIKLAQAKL

| SMILES | IC50 [µM] |
| --- | --- |
| CCCCc1ccc(NS(=O)(=O)c2ccc(C)c(C(=O)N3CCN(c4ccccn4)CC3)c2)cc1 | 1 to 50 |
| CCCc1ccc(NS(=O)(=O)c2cccc(C(=O)N3CCN(c4ccccc4)CC3)c2)cc1 | 1 to 50 |
| COc1ccccc1N1CCCN(C(=O)c2cccc(S(=O)(=O)Nc3ccc(C(C)C)cc3)c2)CC1 | 1 to 50 |
| CCCCc1ccc(NS(=O)(=O)c2ccc(C)c(C(=O)N3CCN(c4ccccc4C(C)C)CC3)c2)cc1 | 1 to 50 |
| CCCCc1ccc(NS(=O)(=O)c2ccc(N3CCCC3)c(C(=O)N3CCN(c4ccccc4OC)CC3)c2)cc1 | 1 to 50 |
| CCCCc1ccc(C(=O)Nc2ccc(C)c(C(=O)N3CCN(c4ccccc4OC)CC3)c2)cc1 | 1 to 50 |
| CCCCc1ccc(OC(=O)Nc2ccc(C)c(C(=O)N3CCN(c4ccccc4OC)CC3)c2)cc1 | > 50 |
| COc1ccc(NS(=O)(=O)c2cccc(C(=O)N3CCN(c4ccccc4)CC3)c2)cc1 | > 50 |
| CCOc1ccc(NS(=O)(=O)c2cccc(C(=O)N3CCCN(c4ccccc4OC)CC3)c2)cc1 | > 50 |
| Cc1ccc(S(=O)(=O)Nc2ccc(Cl)cc2)cc1C(=O)N1CCN(c2ccccc2)CC1 | > 50 |
| COc1ccccc1NS(=O)(=O)c1cccc(C(=O)N2CCCN(c3ccccc3OC)CC2)c1 | > 50 |
| Cc1cc(F)ccc1NS(=O)(=O)c1cccc(C(=O)N2CCN(c3ccccn3)CC2)c1 | > 50 |
| CCCCc1ccc(NS(=O)(=O)c2cccc(C(=O)N3CCN(c4ncc(C)cc4Cl)CC3)c2)cc1 | 1 to 50 |
| CCCCOc1ccc(NS(=O)(=O)c2ccc(C)c(C(=O)N3CCN(c4ccccc4OC)CC3)c2)cc1 | 1 to 50 |
| CCCOc1ccc(NS(=O)(=O)c2ccc(C)c(C(=O)N3CCN(c4ccccc4OC)CC3)c2)cc1 | 1 to 50 |

Second part, the compound after the results:

| IC50 [µM] | SMILES |
| --- | --- |
| 1 to 50 | Cc1ccc(S(=O)(=O)Nc2ccc(C(C)C)cc2)cc1C(=O)N1CCN(c2ccccc2)CC1 |
| 1 to 50 | CCCCc1ccc(NS(=O)(=O)c2ccc(C)c(C(=O)N3CCN(c4ccccc4-c4ccccc4)CC3)c2)cc1 |
| 1 to 50 | COc1ccccc1N1CCN(C(=O)c2cc(S(=O)(=O)Nc3ccc(OCc4cn(Cc5ccccc5)nn4)cc3)ccc2C)CC1 |
| 1 to 50 | COc1ccccc1N1CCN(C(=O)c2cc(S(=O)(=O)Nc3ccc(C)c4cccnc34)ccc2C)CC1 |
| 1 to 50 | CCCCc1ccc(NS(=O)(=O)c2ccc(N3CCOCC3)c(C(=O)N3CCN(c4ccccc4OC)CC3)c2)cc1 |
| > 50 | Cc1ccc(S(=O)(=O)Nc2ccc(Cl)cc2)cc1C(=O)N1CCN(c2ccccn2)CC1 |
| > 50 | COc1ccccc1N1CCN(C(=O)c2cccc(S(=O)(=O)Nc3ccccc3F)c2)CC1 |
| > 50 | O=C(c1cccc(S(=O)(=O)Nc2ccccc2F)c1)N1CCN(c2ccccc2)CC1 |
| > 50 | COc1ccc(NS(=O)(=O)c2cccc(C(=O)N3CCN(c4ccccc4OC)CC3)c2)cc1 |
| 1 to 50 | CCCc1ccccc1NS(=O)(=O)c1cccc(C(=O)N2CCN(c3ccccc3)CC2)c1 |
| > 50 | CCOc1ccc(NS(=O)(=O)c2ccc(C)c(C(=O)N3CCN(c4ccccn4)CC3)c2)cc1 |
| > 50 | COc1ccccc1N1CCN(C(=O)c2cccc(NS(=O)(=O)c3cccc4cccnc34)c2)CC1 |
| 1 to 50 | CCCCc1ccc(NS(=O)(=O)c2cccc(C(=O)N3CCN(c4ccccn4)CC3)c2)cc1 |
| 1 to 50 | CC(C)(C)c1ccc(NS(=O)(=O)c2cccc(C(=O)N3CCN(c4ccccc4)CC3)c2)cc1 |
| < 1 | CCCCc1ccc(NS(=O)(=O)c2ccc(C)c(C(=O)N3CCN(c4ccccc4OC)CC3)c2)cc1 |
| 1 to 50 | CCCCc1ccc(NS(=O)(=O)c2cccc(C(=O)N3CCN(c4ncccn4)CC3)c2)cc1 |
| 1 to 50 | CCCCc1ccc(NS(=O)(=O)c2cccc(C(=O)N3CCN(c4ncc(C(F)(F)F)cc4Cl)CC3)c2)cc1 |
| 1 to 50 | COc1ccccc1N1CCN(C(=O)c2cc(S(=O)(=O)Nc3ccc(OCC4CC4)cc3)ccc2C)CC1 |
| 1 to 50 | COc1ccccc1N1CCN(C(=O)c2cc(S(=O)(=O)Nc3ccc(C)cc3)ccc2C)CC1 |
| 1 to 50 | CCc1ccc(NS(=O)(=O)c2ccc(C)c(C(=O)N3CCN(c4ccccc4OC)CC3)c2)cc1 |
